Experimental data as given in patent EP0974354A1, “Artemisinin derivatives” (The Hong Kong University of Science & Technology, priority 1998, dated 2000).
≈ marks a conversion by molar mass, not a printed value. Where “and” joins values, the source holds several entries; their conditions need not be identical. Identical values can stand only once. Like-named read-outs stand apart in the source and are kept apart here.

Columns and labels:
[1] = test system: Plasmodium Falciparum D6 Strain (Chloroquine sensitive); assay: In vitro screening against Plasmodium falciparum, radiolabelled hypoxanthine incorporation, D6 strain; assay type: cell-based; details: for IC50 / IC90: Plasmodium falciparum
Experimental: (§1) Two parasite strains - W2 resistant to chloroquine, and D6 sensitive to chloroquine but resistant to mefloquine were used.
(§2) The assay relies on incorporation of radiolabelled hypoxanthine by the parasite and inhibition of incorporation is attributed to activity of known or candidate antimalarial drugs. For each assay, proven antimalarials such as chloroquine, mefloquine, quinine, artemisinin and pyrimethamine were used as controls. The incubation period was 66 hours, and the starting parasitemia was 0.2% with 1% hematocrit. The medium was an RPMI-1640 culture with no folate or p-aminobenzoic acid. […] If a compound was submitted with no prior knowledge of activity, it was dissolved directly in dimethyl sulphoxide (DMSO), and diluted 400 fold with complete culture medium. […] These dilutions were performed automatically by a Biomek 1000 Liquid Handling System in 96-well microtiter plates. The diluted drugs were then transferred to test plates, 200 µl of parasitized erythrocytes were added, and incubated at 37°C in a controlled environment of 5% CO2, 5% O2 and 90% N2. After 42 hours, 25 µl of ^3H-hypoxanthine was added, and the plates incubated for an additional 24 hours. After 66 hours, the plates were frozen at -70°C to lyse the red cells, and then thawed and harvested onto glass fiber filter mats in a 96-well harvester. The filter mats were then counted in a scintillation counter.
(§3) A prescreen format can be used wherein a 3-dilution assay may be used to determine activity at high medium or low concentrations. The concentrations were selected as 50,000, 500 and 50 ng ml^-1. These were performed in duplicate on a 96-well format plate with 14 test compounds and one known (standard) compound per plate. The system was automated with a Biomek diluter for mixing and diluting the drugs, and adding drugs and parasites to a test plate.
(§4) In the prescreen format, if the […] […] If the AF has a ">", then the IC value is greater than the prescreen dilution value; thus "AF>250" means that the IC value is greater than 250 ng ml^-1 and no further screening is carried out. In such cases, values of 0.00 are entered for IC values.

[2] = test system: Plasmodium Falciparum W2 Strain (Chloroquine resistant); assay: In vitro screening against Plasmodium falciparum, radiolabelled hypoxanthine incorporation, W2 strain; assay type: cell-based; details: for IC50 / IC90: Plasmodium falciparum; for IC50: read-out: In vitro activity: IC50, W2 Strain (Chloroquine resistant); for IC90: read-out: In vitro activity: IC90, W2 Strain (Chloroquine resistant)
Experimental: as §1, §2, §3, §4

[3] = test system: parasite of the genus Plasmodium; assay: Antimalarial activity, general statement in the description, test not specified; details: qualitative statement
[4] = D6 Strain (Chloroquine sensitive), 66 hours incubation, Albumax medium
[5] = W2 Strain (Chloroquine resistant), 66 hours incubation, Albumax medium
[6] = D6, 66 h, D6 Strain (Chloroquine sensitive), 66 hours incubation, Albumax medium, read-out: In vitro activity: IC50
[7] = D6, 66 h, D6 Strain (Chloroquine sensitive), 66 hours incubation, Albumax medium, read-out: In vitro activity: IC90
[8] = W2, 66 h, 66 hours incubation, Albumax medium

| Structure (SMILES) | In vitro activity: (IC10) [1, 4] | In vitro activity: IC50 [1, 4] [ng/mL] | In vitro activity: IC90 [1, 4] [ng/mL] | IC50 [1, 6] [ng/mL] | IC90 [1, 7] [ng/mL] | IC50 [2, 8] [ng/mL] | IC90 [2, 8] [ng/mL] | In vitro activity: IC50 ([2]; W2, 66 h) [ng/mL] | In vitro activity: IC90 ([2]; W2, 66 h) [ng/mL] | In vitro activity: (IC10) ([2]; W2, 66 h) [ng/mL] | other results |
| --- | --- | --- | --- | --- | --- | --- | --- | --- | --- | --- | --- |
| CC1CCC2C(C)C(OCc3ccc4ccccc4c3)OC3OC4(C)CCC1C32OO4 (single isomer, unassigned) [3(α-isomer), 10α-[(2'-naphthylmethyl)oxy]dihydroartemisinin] | 0.93 ng/mL | 1.24 | 1.67 |  |  |  |  |  |  |  | In vitro activity: (IC10) [2, 5]: 0.62 ng/mL; In vitro activity: IC50 [2, 5]: 1.54 ng/mL; In vitro activity: IC90 [2, 5]: 3.83 ng/mL |
| C[C@H]1[C@@H](OCc2ccc3ccccc3c2)O[C@@H]2O[C@@]3(C)CC[C@H]4[C@H](C)CC[C@@H]1[C@@]24OO3 [3(β-isomer), 10β-[(2'-naphthylmethyl)oxy]dihydroartemisinin] | 0.31 ng/mL and 0.51 ng/mL | 0.64 | 0.80 | 0.4 (≈ 0.942 nM) | 0.53 (≈ 1.25 nM) | 0.64 (≈ 1.51 nM) | 0.78 (≈ 1.84 nM) | 0.63 | 1.25 |  |  |
| CC1CCC2C(C)C(Oc3ccnc4ccccc34)OC3OC4(C)CCC1C32OO4 (stereo not drawn) [10β-(4'-Quinolinoxy)dihydroartemisinin] |  |  |  |  |  |  |  |  |  |  | antimalarial activity [3]: particularly interesting antimalarial activity |
| C[C@H]1[C@H](OCc2cccc3ccccc23)O[C@@H]2O[C@@]3(C)CC[C@H]4[C@H](C)CC[C@@H]1[C@@]24OO3 [11(α-isomer)] | 1.03 ng/mL and 1.20 ng/mL | 1.47 | 1.81 | 1.42 (≈ 3.34 nM) | 1.97 (≈ 4.64 nM) | 0.67 (≈ 1.58 nM) | 1.01 (≈ 2.38 nM) | 0.70 | 1.17 |  |  |
| C[C@H]1[C@@H](OCC(F)(F)F)O[C@@H]2O[C@@]3(C)CC[C@H]4[C@H](C)CC[C@@H]1[C@@]24OO3 [Example 1, 10β-[(2',2',2'-trifluoroethyl)oxy]dihydroartemisinin] | 0.57 ng/mL |  |  |  |  | 0.26 (≈ 0.71 nM) |  |  |  |  | IC50 ([1]; D6, 66 h, read-out: In vitro activity: IC50): 0.77 ng/mL (≈ 2.1 nM); IC90 ([1]; D6, 66 h, read-out: In vitro activity: IC90): 1.04 ng/mL (≈ 2.84 nM); In vitro activity: (IC10) [2, 5]: 0.19 ng/mL and 0.20 ng/mL; In vitro activity: IC50 [2, 5]: 0.51 ng/mL |
| C[C@H]1[C@@H](Oc2ccnc3cc(C(F)(F)F)ccc23)O[C@@H]2O[C@@]3(C)CC[C@H]4[C@H](C)CC[C@@H]1[C@@]24OO3 [Example 2, 10β-[4'-(7'-trifluoromethylquinolinoxy)]dihydroartemisinin] | 0.55 ng/mL |  |  | 0.71 (≈ 1.48 nM) | 0.93 (≈ 1.94 nM) | 0.67 (≈ 1.4 nM) | 0.81 (≈ 1.69 nM) |  |  | 0.56 | antimalarial activity [3]: particularly interesting antimalarial activity |
| C[C@H]1[C@@H](OCc2ccccc2F)O[C@@H]2O[C@@]3(C)CC[C@H]4[C@H](C)CC[C@@H]1[C@@]24OO3 [Example 8] | 0.46 ng/mL |  |  | 0.75 (≈ 1.91 nM) | 1.22 (≈ 3.11 nM) | 0.83 (≈ 2.11 nM) | 1.08 (≈ 2.75 nM) |  |  | 0.63 |  |
| C[C@H]1[C@@H](OCc2cccc(F)c2)O[C@@H]2O[C@@]3(C)CC[C@H]4[C@H](C)CC[C@@H]1[C@@]24OO3 [Example 9] | 0.08 ng/mL |  |  | 0.36 (≈ 0.917 nM) | 1.7 (≈ 4.33 nM) | 0.45 (≈ 1.15 nM) | 0.59 (≈ 1.5 nM) |  |  | 0.35 |  |
| C[C@H]1[C@@H](OCc2ccc(F)cc2)O[C@@H]2O[C@@]3(C)CC[C@H]4[C@H](C)CC[C@@H]1[C@@]24OO3 [Example 10] | 0.20 ng/mL |  |  | 0.34 (≈ 0.866 nM) | 0.58 (≈ 1.48 nM) | 0.25 (≈ 0.637 nM) | 0.86 (≈ 2.19 nM) |  |  | 0.07 |  |
| C[C@H]1[C@@H](OCc2c3ccccc3cc3ccccc23)O[C@@H]2O[C@@]3(C)CC[C@H]4[C@H](C)CC[C@@H]1[C@@]24OO3 [Example 12] |  |  |  |  |  | 132 (≈ 277 nM) | 173 (≈ 365 nM) | 187.76 | 301.34 |  | In vitro activity: (IC10) ([1]; D6, 66 h): 102.79 ng/mL; IC50 ([1]; D6, 66 h, read-out: In vitro activity: IC50, D6 Strain (Chloroquine sensitive), 66 hours incubation, Albumax medium): 136 ng/mL (≈ 286 nM); IC90 ([1]; D6, 66 h, read-out: In vitro activity: IC90, D6 Strain (Chloroquine sensitive), 66 hours incubation, Albumax medium): 179 ng/mL (≈ 378 nM) |
| C[C@H]1[C@@H](OCc2cccc3c2ccc2ccccc23)O[C@@H]2O[C@@]3(C)CC[C@H]4[C@H](C)CC[C@@H]1[C@@]24OO3 [Example 13] | 0.44 ng/mL |  |  | 0.58 (≈ 1.22 nM) | 0.77 (≈ 1.62 nM) | 0.62 (≈ 1.31 nM) | 0.79 (≈ 1.66 nM) |  |  | 0.50 |  |
| C[C@H]1[C@@H](OCc2ccc3ccc4cccc5ccc2c3c45)O[C@@H]2O[C@@]3(C)CC[C@H]4[C@H](C)CC[C@@H]1[C@@]24OO3 [Example 14] | 29.09 ng/mL |  |  | 37.9 (≈ 76.1 nM) | 49.5 (≈ 99.2 nM) | 17.2 (≈ 34.5 nM) | 24.9 (≈ 49.9 nM) |  |  | 11.90 |  |
| C[C@H]1[C@@H](Oc2ccnc3ccccc23)O[C@@H]2O[C@@]3(C)CC[C@H]4[C@H](C)CC[C@@H]1[C@@]24OO3 [Example 15] | 0.23 ng/mL and 0.41 ng/mL | 0.61 | 0.91 | 0.43 (≈ 1.04 nM) | 0.8 (≈ 1.94 nM) | 1.24 (≈ 3.01 nM) | 6.45 (≈ 15.7 nM) | 2.03 | 9.11 |  |  |
